Source: US20250257055A1, “TERTIARY AMIDE DERIVATIVES SUBSTITUTED WITH 4-MEMBERED RING STRUCTURE” (Sumitomo Pharma Co., Ltd., priority 2024, published 2025)
≈ marks a conversion by molar mass, not a printed value. Where two headings read alike, the source gives them in different places.

Columns and labels:
[1] = Membrane permeability test (PAMPA); type: in vitro ADME
Description: The membrane permeability of the test compound was tested by parallel artificial membrane permeability assay (PAMPA) as follows. 200 μL of System solution (pION Inc.) containing the test compound and 4 μL of GIT Lipid-0 (pION Inc.) were added to the donor plate. 200 μL of Acceptor Sink Buffer (pION Inc.) was added to the acceptor plate. Both plates were overlapped and incubated at 37° C. for 4 hours, after which the UV of the solutions on the acceptor side and donor side was measured using a UV plate reader (190-500 nm). Compounds with poor UV absorption were measured using LC-MS. The permeability coefficient Pe (10^−6 cm/sec) of the drug was calculated using the following equation.

[2] = tested on: G-401 xenograft; test: Drug efficacy evaluation by intravenous administration using G-401 xenograft mice model; type: in vivo
Description: G-401 cells (ATCC) were intradermally transplanted into 4-7-week-old BALB/cAnNCrj-nu/nu mice (CAnN.Cg-Foxn1/CrlCrlj, Jackson Laboratory Japan) at 5×10^5 cells/mouse. After confirming the engraftment of G-401 cells 10-40 days after transplantation, the test compound suspended in a solvent such as 10 mmol/L glycine buffer solution (pH 2.0) was administered via the tail vein at least once a week at a dose of 0.015-20 mg/kg. The tumor volume was measured over time from the start of administration, and the effect of tumor volume reduction by administration of the test compound was evaluated. The tumor volume can be calculated from the following equation using the minor axis and major axis of the tumor measured with an electronic caliper (Mitutoyo).
A control administration group administered with only a solvent such as 10 mmol/L glycine buffer solution (pH 2.0) and a test compound administration group were compared, and the antitumor effect was evaluated by calculating T/C from the following equation.

[3] = Solubility test; type: physicochemical; details: for solubility: aqueous buffer, thermodynamic from solid
Description: The solubility was measured for Examples 7, 10, 20, 23, 24, and 30 to 34, Comparative Example 1, and Comparative Example 2. The test compound was added to 10 mmol/L glycine buffer (pH 2.0) and 10 mmol/L citrate buffer (pH 3.0), and the mixture was stored in a thermostatic chamber at 5° C. After standing overnight, the mixture was filtered through a membrane filter, and the concentration of the filtrate was measured by HPLC.

[4] = tested on: RMGI cells; test: Cell proliferation inhibition experiment using RMGI cells; type: cell-based; details: Homo sapiens, RMG-I, 144 h, cultured for 6 days, CellTiter-Glo
Description: RMGI cells (derived from ovarian cancer) were obtained from JCRB cell bank. RMGI cells were cultured in Ham's F12 medium containing 10% fetal bovine serum and 1% penicillin/streptomycin under conditions of 37° C. and 5% CO2.
(§1) 200 cells per well were seeded in a 384-well plate. One day after seeding, Examples 3, 7, 9, 10, 11, 20, and 23 to 25 were added so that the final concentration of DMSO was 0.1%, and the cells were cultured for 6 days. After the culture was completed, the cell viability was measured using CellTiter-Glo Luminescent Cell Viability Assay (Promega, G7570).

[5] = tested on: Kuramochi cells; test: Cell proliferation inhibition experiment using Kuramochi cells; type: cell-based; details: 144 h, cultured for 6 days, CellTiter-Glo
Description: Kuramochi cells (derived from ovarian cancer) were obtained from JCRB (Japanese Collection of Research Bioresources) cell bank. Kuramochi cells were cultured in RPMI-1640 medium containing 10% fetal bovine serum and 1% penicillin/streptomycin under conditions of 37° C. and 5% CO2.
as §1, with “500” for “200”, “20,” for “20, and”, “25, and 30 to 34” for “25”

[6] = tested on: G-401 cells; test: Cell proliferation inhibition experiment using G-401 cells; type: cell-based; details: Homo sapiens, 72 h, cultured for 3 days, CellTiter-Glo
Description: G-401 cells (derived from malignant rhabdoid tumor) were obtained from the American Type Culture Collection (ATCC). G-401 cells were cultured in McCoy's 5A medium containing 10% fetal bovine serum and 1% penicillin/streptomycin under conditions of 37° C. and 5% CO2.
as §1, with “500” for “200”, “1” for “3, 7, 9, 10, 11, 20, and 23”, “35” for “25”, “3” for “6”

[7] = Pharmacokinetic study in mice; type: in vivo; details: for AUC / clearance / half-life / Vd / Cmax: female, BALB/c (BALB/cAnN CrlCrlj), mouse, plasma; for Vd: read-out: Vdss
Description: The test compound was administered to 7-week-old female BALB/c (BALB/cAnN CrlCrlj) mice intravenously (dosage: 1 mg/kg) in a 50% PEG solution (0.01 mol/L HCl) or orally (dosage: 10 mg/kg) in a 0.5% methylcellulose aqueous solution, and blood was collected at the following times:
Intravenous administration: 5 min, 15 min, 30 min, 1 hr, 2 hr, 4 hr, 6 hr, and 24 hr after administration
Oral administration: 15 min, 30 min, 1 hr, 2 hr, 4 hr, 6 hr, and 24 hr after administration
The collected blood was centrifuged at 3000 rpm×10 min using a refrigerated centrifuge set at 4° C., and the obtained plasma was measured by LC-MS. A calibration curve was prepared from the value (peak ratio) obtained by dividing the peak area of the test substance by the peak area of the internal standard substance in MS and the concentration of the plasma calibration curve sample. The concentration in the sample was calculated from the peak ratio and the calibration curve of each sample.

[8] = biological target: recombinant p300 (Homo sapiens (Human), UniProt Q09472); test: HAT activity inhibition experiment (SensoLyte HAT(p300) Assay Kit); type: biochemical; details: recombinant p300, histone H3 peptide, acetyl CoA
recombinant p300, sequence (Q09472 whole entry): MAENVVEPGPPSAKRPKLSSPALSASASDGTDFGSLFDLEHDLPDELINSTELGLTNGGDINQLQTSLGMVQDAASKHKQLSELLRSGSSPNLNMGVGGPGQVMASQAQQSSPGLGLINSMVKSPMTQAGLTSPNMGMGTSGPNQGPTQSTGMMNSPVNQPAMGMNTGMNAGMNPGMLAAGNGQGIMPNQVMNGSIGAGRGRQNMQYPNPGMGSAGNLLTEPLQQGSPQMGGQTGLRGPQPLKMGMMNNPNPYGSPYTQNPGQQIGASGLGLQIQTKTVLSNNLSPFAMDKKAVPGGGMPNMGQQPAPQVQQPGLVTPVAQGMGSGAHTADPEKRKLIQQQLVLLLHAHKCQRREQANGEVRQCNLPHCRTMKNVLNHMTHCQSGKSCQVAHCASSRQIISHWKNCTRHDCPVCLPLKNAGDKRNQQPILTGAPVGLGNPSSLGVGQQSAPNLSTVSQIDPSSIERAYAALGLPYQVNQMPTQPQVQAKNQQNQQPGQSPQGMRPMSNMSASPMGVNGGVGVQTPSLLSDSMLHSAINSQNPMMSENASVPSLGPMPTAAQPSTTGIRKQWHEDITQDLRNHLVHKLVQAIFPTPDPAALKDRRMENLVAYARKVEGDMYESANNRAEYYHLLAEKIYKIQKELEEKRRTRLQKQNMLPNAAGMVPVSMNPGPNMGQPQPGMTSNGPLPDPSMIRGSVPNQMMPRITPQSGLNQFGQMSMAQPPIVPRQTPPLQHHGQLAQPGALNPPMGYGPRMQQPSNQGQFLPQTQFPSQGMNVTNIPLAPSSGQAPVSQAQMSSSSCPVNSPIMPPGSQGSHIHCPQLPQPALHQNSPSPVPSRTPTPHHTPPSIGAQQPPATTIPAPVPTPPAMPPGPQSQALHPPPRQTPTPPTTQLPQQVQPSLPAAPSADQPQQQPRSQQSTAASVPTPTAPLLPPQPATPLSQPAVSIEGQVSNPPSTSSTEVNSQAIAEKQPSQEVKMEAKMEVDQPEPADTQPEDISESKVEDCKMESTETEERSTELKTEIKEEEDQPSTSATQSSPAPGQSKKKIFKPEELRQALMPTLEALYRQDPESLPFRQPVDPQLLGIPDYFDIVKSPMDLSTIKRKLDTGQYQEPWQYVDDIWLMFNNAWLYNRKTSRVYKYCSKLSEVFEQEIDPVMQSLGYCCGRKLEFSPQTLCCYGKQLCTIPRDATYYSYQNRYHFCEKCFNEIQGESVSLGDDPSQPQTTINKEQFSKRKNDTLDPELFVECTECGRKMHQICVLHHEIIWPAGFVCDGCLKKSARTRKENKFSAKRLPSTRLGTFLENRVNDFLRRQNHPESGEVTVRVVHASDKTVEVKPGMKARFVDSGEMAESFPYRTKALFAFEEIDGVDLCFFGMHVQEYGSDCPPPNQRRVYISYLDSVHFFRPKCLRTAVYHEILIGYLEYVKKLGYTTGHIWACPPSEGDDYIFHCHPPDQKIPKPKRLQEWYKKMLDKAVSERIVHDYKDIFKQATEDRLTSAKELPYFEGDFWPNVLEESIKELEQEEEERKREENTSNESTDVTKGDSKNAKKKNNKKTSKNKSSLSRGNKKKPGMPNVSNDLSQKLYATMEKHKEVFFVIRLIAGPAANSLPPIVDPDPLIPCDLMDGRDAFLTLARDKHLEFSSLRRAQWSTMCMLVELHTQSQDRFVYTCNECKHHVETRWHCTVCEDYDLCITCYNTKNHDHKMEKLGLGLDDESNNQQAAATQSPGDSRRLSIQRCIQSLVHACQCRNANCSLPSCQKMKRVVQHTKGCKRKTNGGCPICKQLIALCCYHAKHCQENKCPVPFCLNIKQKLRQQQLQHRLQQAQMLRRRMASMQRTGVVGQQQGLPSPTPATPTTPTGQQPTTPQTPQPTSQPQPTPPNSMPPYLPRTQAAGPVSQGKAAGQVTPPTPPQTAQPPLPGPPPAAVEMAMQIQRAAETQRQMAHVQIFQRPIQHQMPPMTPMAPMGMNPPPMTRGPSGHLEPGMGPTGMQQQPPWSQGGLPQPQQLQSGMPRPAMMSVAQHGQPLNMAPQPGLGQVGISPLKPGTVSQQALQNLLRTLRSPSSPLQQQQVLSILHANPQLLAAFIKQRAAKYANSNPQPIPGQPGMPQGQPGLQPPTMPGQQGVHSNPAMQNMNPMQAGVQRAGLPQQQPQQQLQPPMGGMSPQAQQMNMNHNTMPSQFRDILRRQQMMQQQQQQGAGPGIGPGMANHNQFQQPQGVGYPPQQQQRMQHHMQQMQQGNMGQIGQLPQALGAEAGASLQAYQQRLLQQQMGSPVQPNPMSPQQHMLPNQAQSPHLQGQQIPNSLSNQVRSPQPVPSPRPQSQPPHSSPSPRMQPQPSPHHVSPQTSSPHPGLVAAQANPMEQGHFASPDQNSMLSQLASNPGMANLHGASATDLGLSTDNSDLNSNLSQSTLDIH
Description: The HAT activity inhibitory ability of HAT inhibitors was evaluated using SensoLyte HAT(p300) Assay Kit (ANASPEC, AS-72172). Specifically, 7.5 μL of the compound of Examples […] diluted with assay buffer was added to 7.5 μL of recombinant p300 solution diluted 10 times with assay buffer, and the mixture was incubated at room temperature for 10 minutes. 7.5 μL of acetyl CoA solution diluted 10 times with assay buffer and 15 μL of histone H3 peptide diluted 10 times with assay buffer were added thereto, and the mixture was incubated at 37° C. for 30 minutes. 37.5 μL of Stop Solution was added to stop the reaction. 75 μL of p300 Developer solution diluted 50 times with assay buffer was added, and the mixture was incubated at room temperature for 30 minutes under light-shielded conditions. The fluorescence at 513 nm when irradiated with 389 nm excitation light was measured using a multiplate reader.

[9] = pH 5.0, 37° C., read-out: pH 5.0 Pe
[10] = pH 7.4, 37° C., read-out: pH 7.4 Pe
[11] = 10 mmol/L citrate buffer (pH 3.0), 5° C., overnight, read-out: Solubility in pH 3.0 buffer
[12] = 10 mmol/L glycine buffer (pH 2.0), 5° C., overnight, read-out: Solubility in pH 2.0 buffer

Row | Papp at 4 h [1, 9] [×10⁻⁶ cm/s] | Papp at 4 h [1, 10] [×10⁻⁶ cm/s] | Solubility in pH 3.0 buffer ([3]; 10 mmol/L citrate buffer (pH 3.0), 5° C., overnight) [mg/mL] | Solubility in pH 2.0 buffer ([3]; 10 mmol/L glycine buffer (pH 2.0), 5° C., overnight) [mg/mL] | solubility [3, 11] [µg/mL] | solubility [3, 12] [µg/mL] | solubility (in words) ([3]; pH 2.0 and pH 3.0 buffers) | AUC ([7]; intravenous, 1 mg/kg) [ng·h/mL] | clearance ([7]; intravenous, 1 mg/kg) [mL/min/kg] | half-life ([7]; intravenous, 1 mg/kg) [h] | Vd ([7]; intravenous, 1 mg/kg) [L/kg] | AUC ([7]; oral, 10 mg/kg) [ng·h/mL] | Cmax ([7]; oral, 10 mg/kg) [ng/mL] | BA ([7]; oral, 10 mg/kg) [%] | IC50 [8] [nM] | Structure (SMILES) | antitumor effect (in words) ([2]; G-401 xenograft model, intravenous administration) | T/C ([2]; intravenous (tail vein), 0.015 mg/kg, 14 days) [%] | IC50 [4] [nM] | IC50 [5] [nM] | IC50 [6] [nM]
1 | 22.6 | 27 | – | – | 8600 (≈ 13.6 mM) | > 10000 | – | – | – | – | – | – | – | – | 0.2 | CC(C)n1cc(-c2ccc3c(c2)[C@H](F)C[C@]32NC(=O)N(CC(=O)N(Cc3ccc(F)cn3)C3(C(F)(F)F)CN(C)C3)C2=O)cn1 [Example 33, 2-{(1′S,3′R)-3′-fluoro-2,5-dioxo-5′-[1-(propan-2-yl)-1H-pyrazol-4-yl]-2′,3′-dihydrospiro[imidazolidine-4,1′-inden]-1-yl}-N-[(5-fluoropyridin-2-yl)methyl]-N-[1-methyl-3-(trifluoromethyl)azetidin-3-yl]acetamide] | – | – | – | 24 | 4
2 | 24.4 | 34.9 | – | – | 8100 (≈ 12.6 mM) | > 10000 | – | – | – | – | – | – | – | – | 0.2 | CN1CC(N(Cc2ccc(F)cn2)C(=O)CN2C(=O)N[C@]3(C[C@@H](F)c4cc(-c5cnn(C6CCC6)c5)ccc43)C2=O)(C(F)(F)F)C1 [Example 34, 2-[(1′S,3′R)-5′-(1-cyclobutyl-1H-pyrazol-4-yl)-3′-fluoro-2,5-dioxo-2′,3′-dihydrospiro[imidazolidine-4,1′-inden]-1-yl]-N-[(5-fluoropyridin-2-yl)methyl]-N-[1-methyl-3-(trifluoromethyl)azetidin-3-yl]acetamide] | – | – | – | 45 | 5

The next lines start with the compound.

Row | Structure (SMILES) | Papp at 4 h [1, 9] [×10⁻⁶ cm/s] | Papp at 4 h [1, 10] [×10⁻⁶ cm/s] | Solubility in pH 3.0 buffer ([3]; 10 mmol/L citrate buffer (pH 3.0), 5° C., overnight) [mg/mL] | Solubility in pH 2.0 buffer ([3]; 10 mmol/L glycine buffer (pH 2.0), 5° C., overnight) [mg/mL] | solubility [3, 11] [µg/mL] | solubility [3, 12] [µg/mL] | solubility (in words) ([3]; pH 2.0 and pH 3.0 buffers) | AUC ([7]; intravenous, 1 mg/kg) [ng·h/mL] | clearance ([7]; intravenous, 1 mg/kg) [mL/min/kg] | half-life ([7]; intravenous, 1 mg/kg) [h] | Vd ([7]; intravenous, 1 mg/kg) [L/kg] | AUC ([7]; oral, 10 mg/kg) [ng·h/mL] | Cmax ([7]; oral, 10 mg/kg) [ng/mL] | BA ([7]; oral, 10 mg/kg) [%] | IC50 [8] [nM] | antitumor effect (in words) ([2]; G-401 xenograft model, intravenous administration) | T/C ([2]; intravenous (tail vein), 0.015 mg/kg, 14 days) [%] | IC50 [4] [nM] | IC50 [5] [nM] | IC50 [6] [nM]
3 | CNC(=O)Cn1cc(-c2ccc3c(c2)[C@H](F)C[C@]32NC(=O)N(CC(=O)N(Cc3ccc(F)cc3)[C@@H](C)C(F)(F)F)C2=O)cn1 [Comparative Example 1, reference compound] | 21.3 | 20.8 | 0.005 | 0.002 | 5 (≈ 0.00808 mM) | 2 (≈ 0.00323 mM) | extremely low solubility | – | – | – | – | – | – | – | – | no antitumor effect | −1.1 | – | – | –
4 | O=C1N[C@]2(C[C@@H](F)c3cc(-c4cnn(C5CN(C6COC6)C5)c4)ccc32)C(=O)N1CC(=O)N(Cc1ccc(F)cc1)C1(C(F)(F)F)COC1 [Example 3, 2-[(1′S,3′R)-3′-fluoro-5′-{1-[1-(oxetan-3-yl)azetidin-3-yl]-1H-pyrazol-4-yl}-2,5-dioxo-2′,3′-dihydrospiro[imidazolidine-4,1′-inden]-1-yl]-N-[(4-fluorophenyl)methyl]-N-[3-(trifluoromethyl)oxetan-3-yl]acetamide] | 14.9 | 17.7 | – | – | – | – | – | 764 | 20.6 | 1.8 | 2 | 3890 | 2670 | 50.9 | 0.6 | – | – | 18 | 91 | 44
5 | O=C1N[C@]2(C[C@@H](F)c3cc(-c4cnn(C5CN(C6COC6)C5)c4)ccc32)C(=O)N1CC(=O)N(Cc1ccc(F)cn1)C1(C(F)(F)F)CC(F)(F)C1 [Example 9, N-[3,3-difluoro-1-(trifluoromethyl)cyclobutyl]-2-[(1′S,3′R)-3′-fluoro-5′-{1-[1-(oxetan-3-yl)azetidin-3-yl]-1H-pyrazol-4-yl}-2,5-dioxo-2′,3′-dihydrospiro[imidazolidine-4,1′-inden]-1-yl]-N-[(5-fluoropyridin-2-yl)methyl]acetamide] | 13.3 | 15.3 | – | – | – | – | – | 1200 | 11.9 | 2.43 | 2 | 13100 | 5370 | 109.1 | – | – | – | 24 | 184 | 38
6 | CN1CC(N(Cc2ccc(F)cc2)C(=O)CN2C(=O)N[C@]3(C[C@@H](F)c4cc(-c5cnn(C(C)(C)C#N)c5)ccc43)C2=O)(C(F)(F)F)C1 [Example 11, 2-{(1′S,3′R)-5′-[1-(2-cyanopropan-2-yl)-1H-pyrazol-4-yl]-3′-fluoro-2,5-dioxo-2′,3′-dihydrospiro[imidazolidine-4,1′-inden]-1-yl}-N-[(4-fluorophenyl)methyl]-N-[1-methyl-3-(trifluoromethyl)azetidin-3-yl]acetamide] | 24.1 | 27.2 | – | – | – | – | – | 446 | 33.7 | 2.12 | 4.1 | 2500 | 1720 | 56.2 | 2.1 | – | – | 5 | 48 | 10
